Where two headings read alike, the source gives them in different places.
What was measured:
Conditions in all cases: mouse, in vivo
PANC-1 tumors [1] = test system: PANC-1 tumors; set-up: species or system nude mice
PANC-1 tumors [2] = test system: PANC-1 tumors; set-up: species or system nude mice; remark: listed apart in the source
A549 tumors = test system: A549 tumors; set-up: species or system nude mice
GI-101A tumors = test system: GI-101A tumors

N.N.[Cl][Pt][Cl] [Cisplatin, cis-diamminedichloroplatinum]
Effect on tumor growth (PANC-1 tumors [1]): unable to arrest tumor growth

Nc1ccn([C@@H]2O[C@H](CO)[C@@H](O)C2(F)F)c(=O)n1 [Gemcitabine]
Effect on tumor growth (PANC-1 tumors [2]): moderately decreased tumor growth | Effect on tumor growth (A549 tumors): actually increased tumor growth

Nc1ccn(C[C@@H](CO)OCP(=O)(O)O)c(=O)n1 [cidofovir]
Interference with tumor therapy by the virus (GI-101A tumors): did not significantly interfere with tumor therapy by the virus | Survival time of GLV-1h74 injected mice (GI-101A tumors): significantly extended the survival time

Source: patent publication US20090098529A1 (priority 2006, published 2009)
